Source: US20240398811A1, “PRC2 INHIBITORS FOR USE IN TREATING BLOOD DISORDERS” (ORIC Pharmaceuticals, Inc., priority 2021, published 2024)
pIC50: −log10 of the molar value.

Biological target: purified human, His-tagged PRC2 complex (Homo sapiens (Human), UniProt O75530)
Assay: Hot Spot HMT assay, inhibition of PRC2 enzymatic activity
Type: biochemical
Settings: 10 nM PRC2 complex, 1 μM 3H-SAM, core histone H3, 10-point dose-response
Summary of the method: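 Five-subunit PRC2 complex (EZH2, EED, SUZ12, AEBP2, RbAp48; 10 nM) preincubated 20 min at 30° C with compound (top 1.0 μM) and 0.05 mg/ml core histone H3 in Tris-HCl, 1% DMSO. Started with 1 μM [3H]SAM, 1 hr at 30° C; tritiated H3 measured by filter binding and scintillation.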

purified human, His-tagged PRC2 complex, sequence (O75530 whole entry): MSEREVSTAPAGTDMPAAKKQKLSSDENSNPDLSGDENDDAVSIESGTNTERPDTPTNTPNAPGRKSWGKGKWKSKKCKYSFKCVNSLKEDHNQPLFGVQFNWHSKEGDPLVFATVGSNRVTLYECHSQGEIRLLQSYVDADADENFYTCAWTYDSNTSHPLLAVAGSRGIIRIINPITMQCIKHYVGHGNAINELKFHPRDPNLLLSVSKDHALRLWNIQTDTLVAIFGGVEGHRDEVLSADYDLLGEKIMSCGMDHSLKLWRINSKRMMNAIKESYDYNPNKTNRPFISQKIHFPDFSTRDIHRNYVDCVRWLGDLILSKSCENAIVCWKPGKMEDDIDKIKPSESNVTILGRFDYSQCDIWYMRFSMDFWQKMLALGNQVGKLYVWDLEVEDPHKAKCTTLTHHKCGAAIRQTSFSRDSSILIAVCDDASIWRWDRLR
purified human, His-tagged PRC2 complex, sequence (Q15910 whole entry partner): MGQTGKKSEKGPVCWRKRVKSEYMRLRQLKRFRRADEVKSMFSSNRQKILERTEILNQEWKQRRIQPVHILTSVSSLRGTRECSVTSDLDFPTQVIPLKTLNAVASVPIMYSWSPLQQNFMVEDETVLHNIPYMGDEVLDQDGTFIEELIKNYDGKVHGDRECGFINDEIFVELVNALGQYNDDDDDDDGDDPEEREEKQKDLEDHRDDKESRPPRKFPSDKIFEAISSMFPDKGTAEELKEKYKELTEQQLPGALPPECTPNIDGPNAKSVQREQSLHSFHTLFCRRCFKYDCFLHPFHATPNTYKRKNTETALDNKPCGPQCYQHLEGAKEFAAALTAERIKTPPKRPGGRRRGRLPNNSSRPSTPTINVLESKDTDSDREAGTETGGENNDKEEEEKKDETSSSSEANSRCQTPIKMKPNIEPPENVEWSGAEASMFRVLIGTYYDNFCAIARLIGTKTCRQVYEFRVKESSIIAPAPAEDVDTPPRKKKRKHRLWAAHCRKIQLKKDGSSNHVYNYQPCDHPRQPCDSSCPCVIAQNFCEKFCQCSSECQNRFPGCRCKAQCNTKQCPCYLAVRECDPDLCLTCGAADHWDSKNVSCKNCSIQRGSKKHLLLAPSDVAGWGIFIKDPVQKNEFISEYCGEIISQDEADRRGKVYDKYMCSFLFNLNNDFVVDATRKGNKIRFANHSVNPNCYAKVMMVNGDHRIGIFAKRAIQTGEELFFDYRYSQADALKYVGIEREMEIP
purified human, His-tagged PRC2 complex, sequence (Q15022 whole entry partner): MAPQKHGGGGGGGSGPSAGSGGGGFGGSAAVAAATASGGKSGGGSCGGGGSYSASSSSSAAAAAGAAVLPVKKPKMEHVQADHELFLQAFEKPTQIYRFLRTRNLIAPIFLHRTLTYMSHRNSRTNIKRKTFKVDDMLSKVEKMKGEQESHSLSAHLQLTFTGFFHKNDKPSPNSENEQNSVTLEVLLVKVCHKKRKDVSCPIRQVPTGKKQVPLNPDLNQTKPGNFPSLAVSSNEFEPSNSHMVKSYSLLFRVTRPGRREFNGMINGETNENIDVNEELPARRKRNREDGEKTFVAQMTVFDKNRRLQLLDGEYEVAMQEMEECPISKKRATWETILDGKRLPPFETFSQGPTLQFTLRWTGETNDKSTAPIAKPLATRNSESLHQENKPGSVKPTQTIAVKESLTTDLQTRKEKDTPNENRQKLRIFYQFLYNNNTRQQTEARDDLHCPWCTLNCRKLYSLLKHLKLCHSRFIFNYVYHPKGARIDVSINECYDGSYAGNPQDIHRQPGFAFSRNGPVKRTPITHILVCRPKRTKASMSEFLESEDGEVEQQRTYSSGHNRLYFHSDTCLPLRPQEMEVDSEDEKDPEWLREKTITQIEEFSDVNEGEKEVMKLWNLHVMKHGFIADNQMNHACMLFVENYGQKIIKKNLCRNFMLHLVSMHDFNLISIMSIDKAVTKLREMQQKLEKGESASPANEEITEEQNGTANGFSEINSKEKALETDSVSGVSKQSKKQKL
purified human, His-tagged PRC2 complex, sequence (Q6ZN18 whole entry partner): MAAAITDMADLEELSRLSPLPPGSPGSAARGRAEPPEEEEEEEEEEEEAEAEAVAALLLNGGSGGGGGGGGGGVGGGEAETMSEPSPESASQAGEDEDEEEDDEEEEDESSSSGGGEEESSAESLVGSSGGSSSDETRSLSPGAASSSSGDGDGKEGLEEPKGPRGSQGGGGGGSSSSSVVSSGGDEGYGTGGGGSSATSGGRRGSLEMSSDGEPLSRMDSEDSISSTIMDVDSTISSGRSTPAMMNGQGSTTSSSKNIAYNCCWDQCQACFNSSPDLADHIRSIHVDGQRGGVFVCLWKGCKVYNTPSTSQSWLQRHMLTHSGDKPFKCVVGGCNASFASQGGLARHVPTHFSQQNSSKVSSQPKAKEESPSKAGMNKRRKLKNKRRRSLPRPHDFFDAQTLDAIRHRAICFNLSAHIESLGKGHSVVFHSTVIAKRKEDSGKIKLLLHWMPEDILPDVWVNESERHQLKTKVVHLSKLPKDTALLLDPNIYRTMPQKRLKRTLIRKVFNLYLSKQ
purified human, His-tagged PRC2 complex, sequence (Q09028 whole entry partner): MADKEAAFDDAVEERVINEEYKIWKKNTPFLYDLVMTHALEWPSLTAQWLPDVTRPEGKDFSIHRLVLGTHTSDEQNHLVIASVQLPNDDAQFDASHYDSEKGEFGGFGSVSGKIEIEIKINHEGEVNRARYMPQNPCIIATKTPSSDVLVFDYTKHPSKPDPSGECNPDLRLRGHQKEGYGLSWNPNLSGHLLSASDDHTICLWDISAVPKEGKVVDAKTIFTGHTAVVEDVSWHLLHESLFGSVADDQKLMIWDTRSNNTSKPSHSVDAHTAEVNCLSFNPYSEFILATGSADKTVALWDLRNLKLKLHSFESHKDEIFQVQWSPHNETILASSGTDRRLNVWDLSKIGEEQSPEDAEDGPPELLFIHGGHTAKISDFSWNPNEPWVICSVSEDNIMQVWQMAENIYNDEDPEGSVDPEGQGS

Structure (SMILES)	pIC50
Cc1nn(C(C)C)c(C)c1-c1cnc(NCc2c(F)ccc3c2CCO3)n2cc(C#N)nc12 [Example 92, 5-(((5-fluoro-2,3-dihydrobenzofuran-4-yl)methyl)amino)-8-(1-isopropyl-3,5-dimethyl-1H-pyrazol-4-yl)imidazo[1,2-c]pyrimidine-2-carbonitrile]	6.30 to 7.00
COc1cncc(-c2cnc(NCc3c(F)ccc4c3CCO4)n3cc(C#N)nc23)c1 [Example 93, 5-(((5-fluoro-2,3-dihydrobenzofuran-4-yl)methyl)amino)-8-(5-methoxypyridin-3-yl)imidazo[1,2-c]pyrimidine-2-carbonitrile]	6.30 to 7.00
COc1ccc(-c2cnc(NCc3c(F)ccc4c3CCO4)n3cc(C#N)nc23)cn1 [Example 94, 5-(((5-fluoro-2,3-dihydrobenzofuran-4-yl)methyl)amino)-8-(6-methoxypyridin-3-yl)imidazo[1,2-c]pyrimidine-2-carbonitrile]	> 7.00
N#Cc1cncc(-c2cnc(NCc3c(F)ccc4c3CCO4)n3cc(C#N)nc23)c1 [Example 95, 8-(5-cyanopyridin-3-yl)-5-(((5-fluoro-2,3-dihydrobenzofuran-4-yl)methyl)amino)imidazo[1,2-c]pyrimidine-2-carbonitrile]	> 7.00
Cc1cncc(-c2cnc(NCc3c(F)ccc4c3CCO4)n3cc(C#N)nc23)c1 [Example 96, 5-(((5-fluoro-2,3-dihydrobenzofuran-4-yl)methyl)amino)-8-(5-methylpyridin-3-yl)imidazo[1,2-c]pyrimidine-2-carbonitrile]	> 7.00
N#Cc1cn2c(NCc3c(F)ccc4c3CCO4)ncc(-c3cncc(F)c3)c2n1 [Example 97, 5-(((5-fluoro-2,3-dihydrobenzofuran-4-yl)methyl)amino)-8-(5-fluoropyridin-3-yl)imidazo[1,2-c]pyrimidine-2-carbonitrile]	> 7.00
Cc1ccncc1-c1cnc(NCc2c(F)ccc3c2CCO3)n2cc(C#N)nc12 [Example 98, 5-(((5-fluoro-2,3-dihydrobenzofuran-4-yl)methyl)amino)-8-(4-methylpyridin-3-yl)imidazo[1,2-c]pyrimidine-2-carbonitrile]	> 7.00
CC(C)n1cc(-c2cnc(NCc3c(F)ccc4c3CCO4)n3cc(C#N)nc23)cn1 [Example 99, 5-(((5-fluoro-2,3-dihydrobenzofuran-4-yl)methyl)amino)-8-(1-isopropyl-1H-pyrazol-4-yl)imidazo[1,2-c]pyrimidine-2-carbonitrile]	> 7.00
N#Cc1cn2c(NCc3c(F)ccc4c3CCO4)ncc(-c3cccnc3)c2n1 [Example 100, 5-(((5-fluoro-2,3-dihydrobenzofuran-4-yl)methyl)amino)-8-(pyridin-3-yl)imidazo[1,2-c]pyrimidine-2-carbonitrile]	> 7.00
N#Cc1cn2c(NCc3c(F)ccc4c3CCO4)ncc(-c3cnn(Cc4cccnc4)c3)c2n1 [Example 101, 5-(((5-fluoro-2,3-dihydrobenzofuran-4-yl)methyl)amino)-8-(1-(pyridin-3-ylmethyl)-1H-pyrazol-4-yl)imidazo[1,2-c]pyrimidine-2-carbonitrile]	6.30 to 7.00
CN(C)CCn1cc(-c2cnc(NCc3c(F)ccc4c3CCO4)n3cc(C#N)nc23)cn1 [Example 102, 8-(1-(2-(dimethylamino)ethyl)-1H-pyrazol-4-yl)-5-(((5-fluoro-2,3-dihydrobenzofuran-4-yl)methyl)amino)imidazo[1,2-c]pyrimidine-2-carbonitrile]	6.30 to 7.00
CN(C)CCCn1cc(-c2cnc(NCc3c(F)ccc4c3CCO4)n3cc(C#N)nc23)cn1 [Example 103, 8-(1-(3-(dimethylamino)propyl)-1H-pyrazol-4-yl)-5-(((5-fluoro-2,3-dihydrobenzofuran-4-yl)methyl)amino)imidazo[1,2-c]pyrimidine-2-carbonitrile]	6.30 to 7.00
Cc1n[nH]c(C)c1-c1cnc(NCc2c(F)ccc3c2CCO3)n2cc(C#N)nc12 [Example 104, 8-(3,5-dimethyl-1H-pyrazol-4-yl)-5-(((5-fluoro-2,3-dihydrobenzofuran-4-yl)methyl)amino)imidazo[1,2-c]pyrimidine-2-carbonitrile]	< 6.30
Cc1ncccc1-c1cnc(NCc2c(F)ccc3c2CCO3)n2cc(C#N)nc12 [Example 105, 5-(((5-fluoro-2,3-dihydrobenzofuran-4-yl)methyl)amino)-8-(2-methylpyridin-3-yl)imidazo[1,2-c]pyrimidine-2-carbonitrile]	> 7.00
N#Cc1cn2c(NCc3c(F)ccc4c3CCO4)ncc(-c3cnn(C4COC4)c3)c2n1 [Example 106, 5-(((5-fluoro-2,3-dihydrobenzofuran-4-yl)methyl)amino)-8-(1-(oxetan-3-yl)-1H-pyrazol-4-yl)imidazo[1,2-c]pyrimidine-2-carbonitrile]	6.30 to 7.00
N#Cc1cn2c(NCc3c(F)ccc4c3CCO4)ncc(-c3cnn(C4CCOC4)c3)c2n1 (stereo not shown) [Example 107, 5-(((5-fluoro-2,3-dihydrobenzofuran-4-yl)methyl)amino)-8-(1-(tetrahydrofuran-3-yl)-1H-pyrazol-4-yl)imidazo[1,2-c]pyrimidine-2-carbonitrile]	6.30 to 7.00

Structure (SMILES)	pIC50
N#Cc1cn2c(NCc3c(F)ccc4c3CCO4)ncc(-c3cnn(CC(F)(F)F)c3)c2n1 [Example 108, 5-(((5-fluoro-2,3-dihydrobenzofuran-4-yl)methyl)amino)-8-(1-(2,2,2-trifluoroethyl)-1H-pyrazol-4-yl)imidazo[1,2-c]pyrimidine-2-carbonitrile]	> 7.00
N#Cc1cn2c(NCc3c(F)ccc4c3CCO4)ncc(-c3cnccc3Cl)c2n1 [Example 109, 8-(4-chloropyridin-3-yl)-5-(((5-fluoro-2,3-dihydrobenzofuran-4-yl)methyl)amino)imidazo[1,2-c]pyrimidine-2-carbonitrile]	> 7.00
Cc1ncncc1-c1cnc(NCc2c(F)ccc3c2CCO3)n2cc(C#N)nc12 [Example 110, 5-(((5-fluoro-2,3-dihydrobenzofuran-4-yl)methyl)amino)-8-(4-methylpyrimidin-5-yl)imidazo[1,2-c]pyrimidine-2-carbonitrile]	> 7.00
Cn1nc(C(F)(F)F)cc1-c1cnc(NCc2c(F)ccc3c2CCO3)n2cc(C#N)nc12 [Example 111, 5-(((5-fluoro-2,3-dihydrobenzofuran-4-yl)methyl)amino)-8-(1-methyl-3-(trifluoromethyl)-1H-pyrazol-5-yl)imidazo[1,2-c]pyrimidine-2-carbonitrile]	> 7.00
CN(C)Cc1ccc(-c2cnc(NCc3c(F)ccc4c3CCO4)n3cc(C#N)nc23)cc1 [Example 112, 8-(4-((dimethylamino)methyl)phenyl)-5-(((5-fluoro-2,3-dihydrobenzofuran-4-yl)methyl)amino)imidazo[1,2-c]pyrimidine-2-carbonitrile]	> 7.00
COc1cc(-c2cnc(NCc3c(F)ccc4c3CCO4)n3cc(C#N)nc23)ccn1 [Example 113, 5-(((5-fluoro-2,3-dihydrobenzofuran-4-yl)methyl)amino)-8-(2-methoxypyridin-4-yl)imidazo[1,2-c]pyrimidine-2-carbonitrile]	> 7.00
Cn1nccc1-c1cnc(NCc2c(F)ccc3c2CCO3)n2cc(C#N)nc12 [Example 114, 5-(((5-fluoro-2,3-dihydrobenzofuran-4-yl)methyl)amino)-8-(1-methyl-1H-pyrazol-5-yl)imidazo[1,2-c]pyrimidine-2-carbonitrile]	> 7.00
CN1CCN(C(=O)c2ccc(-c3cnc(NCc4c(F)ccc5c4CCO5)n4cc(C#N)nc34)cc2)CC1 [Example 115, 5-(((5-fluoro-2,3-dihydrobenzofuran-4-yl)methyl)amino)-8-(4-(4-methylpiperazine-1-carbonyl)phenyl)imidazo[1,2-c]pyrimidine-2-carbonitrile]	> 7.00
N#Cc1cn2c(NCc3c(F)ccc4c3CCO4)ncc(-c3ccc(C4CC4)nc3)c2n1 [Example 116, 8-(6-cyclopropylpyridin-3-yl)-5-(((5-fluoro-2,3-dihydrobenzofuran-4-yl)methyl)amino)imidazo[1,2-c]pyrimidine-2-carbonitrile]	> 7.00
COCCn1cc(-c2cnc(NCc3c(F)ccc4c3CCO4)n3cc(C#N)nc23)cn1 [Example 117, 5-(((5-fluoro-2,3-dihydrobenzofuran-4-yl)methyl)amino)-8-(1-(2-methoxyethyl)-1H-pyrazol-4-yl)imidazo[1,2-c]pyrimidine-2-carbonitrile]	6.30 to 7.00
N#Cc1cn2c(NCc3c(F)ccc4c3CCO4)ncc(-c3cnn(C4CCCCO4)c3)c2n1 (stereo not shown) [Example 118, 5-(((5-fluoro-2,3-dihydrobenzofuran-4-yl)methyl)amino)-8-(1-(tetrahydro-2H-pyran-2-yl)-1H-pyrazol-4-yl)imidazo[1,2-c]pyrimidine-2-carbonitrile]	> 7.00
CCn1cc(-c2cnc(NCc3c(F)ccc4c3CCO4)n3cc(C#N)nc23)cn1 [Example 119, 8-(1-ethyl-1H-pyrazol-4-yl)-5-(((5-fluoro-2,3-dihydrobenzofuran-4-yl)methyl)amino)imidazo[1,2-c]pyrimidine-2-carbonitrile]	6.30 to 7.00
N#Cc1cn2c(NCc3c(F)ccc4c3CCO4)ncc(-c3cnn(C4CCOCC4)c3)c2n1 [Example 120, 5-(((5-fluoro-2,3-dihydrobenzofuran-4-yl)methyl)amino)-8-(1-(tetrahydro-2H-pyran-4-yl)-1H-pyrazol-4-yl)imidazo[1,2-c]pyrimidine-2-carbonitrile]	< 6.30
CC(C)(O)Cn1cc(-c2cnc(NCc3c(F)ccc4c3CCO4)n3cc(C#N)nc23)cn1 [Example 121, 5-(((5-fluoro-2,3-dihydrobenzofuran-4-yl)methyl)amino)-8-(1-(2-hydroxy-2-methylpropyl)-1H-pyrazol-4-yl)imidazo[1,2-c]pyrimidine-2-carbonitrile]	> 7.00
Cc1cc(-c2cnc(NCc3c(F)ccc4c3CCCO4)n3cc(C#N)nc23)n(C)n1 [Example 122, 8-(1,3-dimethyl-1H-pyrazol-5-yl)-5-(((6-fluorochroman-5-yl)methyl)amino)imidazo[1,2-c]pyrimidine-2-carbonitrile]	< 6.30
